# Target: T1, Type-2 angiotensin II receptor/Low affinity immunoglobulin epsilon Fc receptor (Homo sapiens, UniProt P06734+P50052)
# T1 sequence (P50052 whole entry): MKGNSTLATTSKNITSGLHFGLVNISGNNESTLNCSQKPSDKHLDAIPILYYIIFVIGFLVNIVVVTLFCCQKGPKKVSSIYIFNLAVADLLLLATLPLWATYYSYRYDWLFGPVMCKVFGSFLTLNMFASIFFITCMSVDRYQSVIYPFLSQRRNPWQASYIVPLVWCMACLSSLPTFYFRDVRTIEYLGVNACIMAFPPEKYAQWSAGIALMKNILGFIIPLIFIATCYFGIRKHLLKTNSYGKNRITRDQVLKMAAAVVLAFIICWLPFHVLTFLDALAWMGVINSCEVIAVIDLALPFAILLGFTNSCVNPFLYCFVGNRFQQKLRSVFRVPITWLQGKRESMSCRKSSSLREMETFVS
# T1 sequence (P06734 whole entry): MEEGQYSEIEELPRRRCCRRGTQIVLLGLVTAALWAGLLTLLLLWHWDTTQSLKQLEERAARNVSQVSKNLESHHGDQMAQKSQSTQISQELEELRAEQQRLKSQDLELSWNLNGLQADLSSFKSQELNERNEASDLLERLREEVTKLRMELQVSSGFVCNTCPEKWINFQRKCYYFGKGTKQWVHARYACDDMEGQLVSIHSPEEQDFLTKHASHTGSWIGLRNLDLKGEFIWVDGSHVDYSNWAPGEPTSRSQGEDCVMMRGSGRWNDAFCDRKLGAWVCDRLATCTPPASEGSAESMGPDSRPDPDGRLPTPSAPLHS
# Experiment: Radioligand Assay
# Experimental: All synthesized ligands were evaluated in a radioligand assay by displacing 125I-[Sar1, Ile8]-Angiotensin II (Perkin Elmer, NEX248050UC) from human AT2R fused to Cb23 or human/rodent/cynomolgus/minipig/dog WT AT2R in HEK-293 cells membrane preparations, using C21 (Vicore Pharma) and Angiotensin II (endogenous ligand) as reference. The affinity was determined using an eight-point dose-response curve, each point performed in duplicates. The compounds were also evaluated in a counterscreen binding assay for displacement of 125I-[Sar1, Ile8]-Angiotensin II binding to human AT1R in HEK-293 cell membranes. For AT1R, the percent displacement was determined at 1 μM and […] or using an eight-point dose-response curve, each point performed in duplicates with Candesartan and Losartan used as reference.For the AT2R/AT1R binding assays, cell membranes, expressing AT2R_Cb23, AT2R or AT1R, were incubated with 0.05 nM 125I-[Sarl, Ile8]-Ang II. The ligand competition assay was performed in a total volume of 100 μL assay buffer (50 mM Tris, 5 mM MgCl2, 1 mM EDTA, 0.1% BSA, pH 7.4), at concentrations ranging from 1 μM to 10 μM. For each experiment, each ligand concentration was tested in duplicate. Non-specific binding (NSB) was determined by the inclusion of 10 μM unlabeled [Sarl]-Ang II (Sigma Aldrich). The reaction was initiated by the addition of radioligand, after which the plates were incubated at 25° C. for one hour. The reaction was terminated by rapid filtration using a vacuum harvester, applying six washes with 100 μL of ice-cold wash buffer (50 mM Tris.HCl, pH 7.4). The filter plates GF/C (Perkin Elmer) were pre-soaked in 0.5% PEI. The residual amount of radioactivity was determined via liquid scintillation counting. IC50 values, representing the concentration at which each ligand displaced 50% of 125I-[Sarl, Ile8]-Ang II, were calculated using GraphPad Prism 7.02 by applying a Non-linear regression equation (variable slope, four parameters) on the data.
row,SMILES,IC50
1,"CCc1nc2ccc(NC(=O)c3ccccc3)cc2c(=O)n1CC1CCN(c2ccccc2-c2nn[nH]n2)CC1 [US20240368133, Compound A-245]",9.97 µM
2,"CC(C)Cc1ccc(-c2nn[nH]n2)c(N2CCN(Cc3nc4ncccc4o3)CC2)c1 [US20240368133, Compound A-71]",18.5 µM
3,"c1ccc2sc(CN3CCN(c4cc(NCC5CC5)ccc4-c4nn[nH]n4)CC3)nc2c1 [US20240368133, Compound A-62]",1.68 µM
4,"CCCCNC(=O)NS(=O)(=O)c1ccc(C(F)(F)F)cc1N1CCN(Cc2nc3ccccc3n2C)CC1 [US20240368133, Compound A-10]",3.36 µM

# Reference: BindingDB's records for patent US20240368133 (Confo Therapeutics, 2024)
